Assay results reported in the supplement of paper PMC10307832.

Legend:
Experiment in all cases: relative viability (nuclei count vs DMSO), 5 days (fraction); higher = more cells survive
[1] = compound: CN(c1ncccc1CNc1nc(Nc2ccc3c(c2)CC(=O)N3)ncc1C(F)(F)F)S(C)(=O)=O + Nc1nc2[nH]cc(CCc3ccc(C(=O)N[C@@H](CCC(=O)O)C(=O)O)cc3)c2c(=O)[nH]1 [Pemetrexed] (partner 0.2 µM)
In short: (§1)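 Each reported value is a median over duplicate plates. It expresses relative viability: treated-well nuclei count divided by vehicle-well nuclei count. Lung cancer cell lines in 1536-well plates were dosed by pin tool a day after seeding, alone with one drug or with a fixed anchor-drug dose plus five library-drug doses (not always all listed) in √10 steps, and nuclei were counted after 5 days.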

[2] = compound: CN(c1ncccc1CNc1nc(Nc2ccc3c(c2)CC(=O)N3)ncc1C(F)(F)F)S(C)(=O)=O + COc1cccc2cc(-c3nc([C@H]4CC[C@H](C(=O)O)CC4)n4ncnc(N)c34)[nH]c12 [OSI-027] (partner 0.5 µM)
In short: as §1

[3] = compound: CN(c1ncccc1CNc1nc(Nc2ccc3c(c2)CC(=O)N3)ncc1C(F)(F)F)S(C)(=O)=O + COc1cc2c(Oc3ccc(NC(=O)C4(C(=O)Nc5ccc(F)cc5)CC4)cc3F)ccnc2cc1OCCCN1CCOCC1 [Foretinib] (partner 0.25 µM)
In short: as §1

[4] = compound: CN(c1ncccc1CNc1nc(Nc2ccc3c(c2)CC(=O)N3)ncc1C(F)(F)F)S(C)(=O)=O + NC(=O)Nc1cc(-c2cccc(F)c2)sc1C(=O)N[C@H]1CCCNC1 [AZD7762] (partner 0.2 µM)
In short: as §1

| Cell Line | relative viability ([1]; first compound 0.01 µM) | relative viability ([1]; first compound 0.03162 µM) | relative viability ([1]; first compound 0.1 µM) | relative viability ([1]; first compound 0.3162 µM) | relative viability ([1]; first compound 1 µM) | relative viability ([2]; first compound 0.01 µM) | relative viability ([2]; first compound 0.03162 µM) | relative viability ([2]; first compound 0.1 µM) | relative viability ([2]; first compound 0.3162 µM) | relative viability ([2]; first compound 1 µM) | relative viability ([3]; first compound 0.01 µM) | relative viability ([3]; first compound 0.03162 µM) | relative viability ([3]; first compound 0.1 µM) | relative viability ([3]; first compound 0.3162 µM) | relative viability ([3]; first compound 1 µM) | relative viability ([4]; first compound 0.01 µM) | relative viability ([4]; first compound 0.03162 µM) | relative viability ([4]; first compound 0.1 µM) | relative viability ([4]; first compound 0.3162 µM) | relative viability ([4]; first compound 1 µM) |
| --- | --- | --- | --- | --- | --- | --- | --- | --- | --- | --- | --- | --- | --- | --- | --- | --- | --- | --- | --- | --- |
| UMC-11 | 0.743 | 0.831 | 0.82 | 0.799 | 0.687 | 0.461 | 0.477 | 0.45 | 0.459 | 0.421 | 0.972 | 1.14 | 0.953 | 1.01 | 0.823 |  |  |  |  |  |
| NCI-H1650 | 0.379 | 0.321 | 0.432 | 0.384 | 0.318 | 0.64 | 0.727 | 0.701 | 0.612 | 0.645 | 1.12 | 1.25 | 1.38 | 1.19 | 0.971 |  |  |  |  |  |
| EBC-1 |  |  |  |  |  |  |  |  |  |  | 0.107 | 0.119 | 0.102 | 0.105 | 0.0994 |  |  |  |  |  |
| SK-LU-1 | 1.04 | 0.903 | 0.954 | 1 | 0.88 | 0.343 | 0.411 | 0.371 | 0.351 | 0.284 | 0.823 | 0.845 | 0.712 | 0.815 | 0.61 |  |  |  |  |  |
| SK-MES-1 | 0.968 | 0.894 | 0.882 | 0.904 | 0.762 | 0.562 | 0.571 | 0.475 | 0.491 | 0.429 | 0.905 | 0.919 | 0.817 | 1.01 | 0.868 |  |  |  |  |  |
| NCI-H1792 | 0.903 | 0.995 | 0.922 | 0.752 | 0.867 | 0.787 | 0.892 | 0.736 | 0.697 | 0.688 |  |  |  |  |  | 0.721 | 0.822 | 0.674 | 0.722 | 0.755 |
| SW 1573 | 0.869 | 0.928 | 0.826 | 0.934 | 0.837 | 0.549 | 0.669 | 0.569 | 0.738 | 0.559 | 0.961 | 0.856 | 0.884 | 1.16 | 0.975 |  |  |  |  |  |
| A549 |  |  |  |  |  |  |  |  |  |  | 0.995 | 0.948 | 0.958 | 0.945 | 0.933 |  |  |  |  |  |
| NCI-H1703 |  |  |  |  |  |  |  |  |  |  | 0.37 | 0.3 | 0.36 | 0.332 | 0.349 | 0.131 | 0.18 | 0.124 | 0.127 | 0.118 |
| NCI-H520 | 0.609 | 0.924 | 0.632 | 0.768 | 0.705 | 0.339 | 0.331 | 0.244 | 0.321 | 0.344 | 0.851 | 0.744 | 0.723 | 0.839 | 0.722 |  |  |  |  |  |
| NCI-H1563 | 0.815 | 0.772 | 0.84 | 0.772 | 0.773 | 0.78 | 0.79 | 0.771 | 0.788 | 0.753 | 0.996 | 0.907 | 1.04 | 0.899 | 0.863 |  |  |  |  |  |
| NCI-H2009 | 1.03 | 1 | 0.923 | 1.01 | 0.948 | 0.714 | 0.617 | 0.607 | 0.663 | 0.671 | 1.17 | 1.22 | 1.27 | 1.27 | 0.965 |  |  |  |  |  |
